In the NIST ThermoML archive (doi:10.1021/je400134d):

Test: xn = mol fraction of the nth substance listed
Details: 100 kPa, Liquid; for speed of sound: Pulse-echo method; for mass density: Vibrating tube method

CNc1ccccc1 [N-methylaniline] + C1CCCCC1
Details | mass density [kg/m3] | speed of sound [m/s]
293.15 K, x1 = 0.0516 | 787.947 | 1285.7
293.15 K, x1 = 0.1047 | 798.075 | 1294.4
293.15 K, x1 = 0.1522 | 807.416 | 1303
293.15 K, x1 = 0.2023 | 817.479 | 1313.2
293.15 K, x1 = 0.2482 | 826.755 | 1322.9
293.15 K, x1 = 0.3018 | 837.718 | 1335.3
293.15 K, x1 = 0.3462 | 846.906 | 1346.3
293.15 K, x1 = 0.4049 | 859.091 | 1362
293.15 K, x1 = 0.4478 | 868.011 | 1374.1
293.15 K, x1 = 0.4972 | 878.435 | 1389.1
293.15 K, x1 = 0.5444 | 888.383 | 1404.1
293.15 K, x1 = 0.5942 | 898.936 | 1420.7
293.15 K, x1 = 0.6445 | 909.64 | 1438.3
293.15 K, x1 = 0.6931 | 920.029 | 1456
293.15 K, x1 = 0.7564 | 933.633 | 1480.3
293.15 K, x1 = 0.7917 | 941.225 | 1494.2
293.15 K, x1 = 0.8372 | 951.07 | 1512.7
293.15 K, x1 = 0.89 | 962.5 | 1534.8
293.15 K, x1 = 0.9446 | 974.383 | 1558.2
298.15 K, x1 = 0.0673 | 786.236 | 1264.5
298.15 K, x1 = 0.1073 | 793.946 | 1271.7
298.15 K, x1 = 0.1609 | 804.548 | 1282
298.15 K, x1 = 0.2065 | 813.772 | 1291.8
298.15 K, x1 = 0.2536 | 823.353 | 1302.3
298.15 K, x1 = 0.2963 | 832.165 | 1312.6
298.15 K, x1 = 0.3554 | 844.401 | 1327.8
298.15 K, x1 = 0.3981 | 853.363 | 1339.6
298.15 K, x1 = 0.4479 | 863.765 | 1354
298.15 K, x1 = 0.5055 | 875.962 | 1371.8
298.15 K, x1 = 0.5537 | 886.222 | 1387.5
298.15 K, x1 = 0.5968 | 895.414 | 1402.5
298.15 K, x1 = 0.6482 | 906.388 | 1420.6
298.15 K, x1 = 0.6939 | 916.254 | 1437.6
298.15 K, x1 = 0.753 | 928.945 | 1460.4
298.15 K, x1 = 0.795 | 938.08 | 1477.2
298.15 K, x1 = 0.8347 | 946.748 | 1493.6
298.15 K, x1 = 0.8896 | 958.645 | 1516.7
298.15 K, x1 = 0.9399 | 969.599 | 1538.5
303.15 K, x1 = 0.0581 | 779.854 | 1239.8
303.15 K, x1 = 0.1038 | 788.651 | 1248.4
303.15 K, x1 = 0.1557 | 798.906 | 1258.8
303.15 K, x1 = 0.2015 | 808.134 | 1268.8
303.15 K, x1 = 0.2526 | 818.565 | 1280.6
303.15 K, x1 = 0.2975 | 827.884 | 1291.7
303.15 K, x1 = 0.3479 | 838.328 | 1304.9
303.15 K, x1 = 0.3974 | 848.695 | 1318.7
303.15 K, x1 = 0.451 | 859.961 | 1334.5
303.15 K, x1 = 0.5005 | 870.442 | 1351.5
303.15 K, x1 = 0.5512 | 881.294 | 1366.7
303.15 K, x1 = 0.5922 | 890.064 | 1380.8
303.15 K, x1 = 0.6575 | 904.033 | 1404.2
303.15 K, x1 = 0.6956 | 912.351 | 1418.6
303.15 K, x1 = 0.7501 | 924.185 | 1439.9
303.15 K, x1 = 0.7995 | 934.921 | 1459.7
303.15 K, x1 = 0.8447 | 944.844 | 1478.6
303.15 K, x1 = 0.8956 | 955.901 | 1500
303.15 K, x1 = 0.9411 | 965.875 | 1520
